What was measured:
Settings in all cases: 72 h
HepG2 [1] = assay: cell viability relative to DMSO; higher = less toxic
Calu-3 [2] = assay: as above
Vero E6 [3] = assay: as above
U2OS [4] = assay: as above
Caco-2 [5] = assay: as above
HepG2 [6] = assay: relative viability EC50 (midpoint between 100% and the lowest measured viability); higher = less toxic
Calu-3 [7] = assay: as above
Vero E6 [8] = assay: as above
U2OS [9] = assay: as above
Caco-2 [10] = assay: as above
HepG2 [11] = assay: drug sensitivity score (DSS) for viability; higher = more toxic; extreme values may be limits of the assay
Calu-3 [12] = assay: as above
Vero E6 [13] = assay: as above
U2OS [14] = assay: as above
Caco-2 [15] = assay: as above

SMILES	cell viability (HepG2 [1]; 1 nM)	cell viability (HepG2 [1]; 10 nM)	cell viability (HepG2 [1]; 100 nM)	cell viability (HepG2 [1]; 1000 nM)	cell viability (HepG2 [1]; 10000 nM)	cell viability (Calu-3 [2]; 1 nM)	cell viability (Calu-3 [2]; 10 nM)	cell viability (Calu-3 [2]; 100 nM)	cell viability (Calu-3 [2]; 1000 nM)	cell viability (Calu-3 [2]; 10000 nM)	cell viability (Vero E6 [3]; 1 nM)	cell viability (Vero E6 [3]; 10 nM)	cell viability (Vero E6 [3]; 100 nM)	cell viability (Vero E6 [3]; 1000 nM)	cell viability (Vero E6 [3]; 10000 nM)	cell viability (U2OS [4]; 1 nM)	cell viability (U2OS [4]; 10 nM)	cell viability (U2OS [4]; 100 nM)	cell viability (U2OS [4]; 1000 nM)	cell viability (U2OS [4]; 10000 nM)	cell viability (Caco-2 [5]; 1 nM)	cell viability (Caco-2 [5]; 10 nM)	cell viability (Caco-2 [5]; 100 nM)	cell viability (Caco-2 [5]; 1000 nM)	cell viability (Caco-2 [5]; 10000 nM)	relative viability EC50 (HepG2 [6])	relative viability EC50 (Calu-3 [7])	relative viability EC50 (Vero E6 [8])	relative viability EC50 (U2OS [9])	relative viability EC50 (Caco-2 [10])	drug sensitivity score (HepG2 [11])	drug sensitivity score (Calu-3 [12])	drug sensitivity score (Vero E6 [13])	drug sensitivity score (U2OS [14])	drug sensitivity score (Caco-2 [15])
O=C(Nc1ccccc1C(=O)Nc1ccc(CCO)cc1)c1ccc([N+](=O)[O-])cc1 [KS-176]	94%	95%	96.3%	95.2%	83.2%	100%	87.9%	98.1%	102%	91.5%	98.2%	102%	99.2%	92.6%	93.1%	96.7%	104%	97.6%	97.8%	93.4%	94%	94.8%	87.9%	97.5%	90.6%	> 10 µM	> 10 µM	> 10 µM	> 10 µM	> 10 µM	0.1	0	0	0	0
N#Cc1c(N(CC(=O)O)CC(=O)O)sc(C(=O)O)c1CC(=O)O [Strontium Ranelate]	93.7%	94.9%	103%	100%	108%	106%	87.9%	98.7%	104%	104%	96.7%	101%	100%	97.6%	99.8%	97.3%	102%	100%	101%	96.7%	93%	102%	93.6%	106%	91.2%	> 10 µM	> 10 µM	> 10 µM	> 10 µM	> 10 µM	0	0	0	0	0
NCC(=O)CCC(=O)O [5-aminolevulinic-acid]	91.4%	99%	92.1%	104%	104%	96.9%	104%	105%	104%	104%	93.7%	94%	91.7%	91.3%	97.8%	104%	96.9%	99%	94.6%	95.3%	100%	103%	98.9%	86.2%	94%	> 10 µM	> 10 µM	> 10 µM	> 10 µM	> 10 µM	0	0	0	0	1.1
CC[C@H]1OC(=O)[C@H](C)[C@@H](O[C@H]2C[C@@](C)(OC)[C@@H](O)[C@H](C)O2)[C@H](C)[C@@H](O[C@@H]2O[C@H](C)C[C@H](N(C)C)[C@H]2O)[C@](C)(O)C[C@@H](C)C(=O)[C@H](C)[C@@H](O)[C@]1(C)O [erythromycin]	100%	83.5%	98.1%	91.4%	90.4%	94.2%	102%	97.5%	90%	86.9%	101%	97.9%	101%	97.4%	99.5%	104%	102%	102%	98%	101%	97.9%	100%	97.2%	94.4%	96.4%	> 10 µM	> 10 µM	> 10 µM	> 10 µM	> 10 µM	0	0.5	0	0	0
CC(C)(C)c1ccc(C(=O)Nc2cn3cc(-n4ccnc4)ccc3n2)cc1 [TC-ASK-10]	87.1%	102%	98.4%	104%	77.2%	97.9%	95.6%	105%	105%	93.9%	93.2%	103%	93.8%	95.5%	99.1%	96.4%	97.3%	99.5%	98.8%	91.6%	96.1%	101%	99.3%	109%	81.8%	> 10 µM	> 10 µM	> 10 µM	> 10 µM	> 10 µM	0.6	0	0	0	0.2

From the supplement of paper PMC13380429
